Values belong to the compound of their own block, whether it stands above or below them.
Key:
Format in all cases: biochemical
Aβ 1-42 fibrils [1] = molecular target: T1, Aβ 1-42 fibrils (Homo sapiens, UniProt P05067); experiment: Congo red binding assay with Aβ 1-42 fibrils; details: for % Inhibition Aβ (result ± S.D.), Congo red binding: 3-day incubation
T1 construct: purchased Bachem Inc
Experimental: (§1) In the Congo red binding assay the ability of a test compound to alter amyloid (in this case, Aβ) binding to Congo red is quantified. In this assay, Aβ 1-42 and test compounds were incubated for 3 days and then vacuum filtered through a 0.2 μm filter. The amount of Aβ 1-42 retained in the filter was then quantitated following staining of the filter with Congo red. After appropriate washing of the filter, any lowering of the Congo red color on the filter in the presence of the test compound (compared to the Congo red staining of the amyloid protein in the absence of the test compound) was indicative of the test compound's ability to diminish/alter the amount of aggregated and congophilic Aβ.
In one study, the ability of Aβ fibrils to bind Congo red in the absence or presence of increasing amounts of the compounds or EDTA (at Aβ:test compound weight ratios of 1:1, 1:0.1, 1:0.01 or 1:0.001) was determined.

NAC fibrils = molecular target: T2, NAC fibrils (Homo sapiens, UniProt P37840); experiment: Congo red binding assay with NAC fibrils; details: for % Inhibition NAC (result ± S.D.), Congo red binding: 3-day incubation
T2 construct: NAC is a 35-amino acid fragment of α-synuclein; purchased Bachem Inc
Experimental: as §1, with “red binding assay, the ability” for “red binding assay the ability”, “of a given test compound” for “of a test compound”, “this case, NAC) binding to” for “this case, Aβ) binding to”, “this assay, NAC and test” for “this assay, Aβ 1-42 and test”, “amount of NAC retained in” for “amount of Aβ 1-42 retained in”, “and congophilic NAC.” for “and congophilic Aβ.”
In one study, the ability of NAC fibrils to bind Congo red in the absence or presence of increasing amounts of compounds #1, 3, 23, 26, 63, 66, 67, or EDTA (at NAC:test compound weight ratios of 1:1, 1:0.1, 1:0.01 or 1:0.001) was determined.

Wild-type α-synuclein = molecular target: T3, Wild-type α-synuclein (Homo sapiens, UniProt P37840); experiment: Circular dichroism spectroscopy - conversion of α-synuclein to β-sheet-rich structure; details: for inhibition of conversion of α-synuclein to a β-sheet-rich structure (in words): 48 hours, 1 mg/ml compound (FIG. 13D)
T3 construct: purchased rPeptide (Athens, Ga., USA)
Experimental: For this purpose, α-synuclein was obtained from rPeptide (Athens, Ga., USA) as a lyophilized salt in 1 mg aliquots. Buffer components and other solvents were obtained from Sigma as A.C.S. Reagent grade or higher. Wild-type α-synuclein was dissolved in a buffer containing 9.5 mM phosphate and 139.7 mM potassium chloride, adjusted to pH 7.4. […] Aliquots of the solutions were taken at the appropriate time point for CD spectral analysis. CD spectra were acquired on a Jasco J-810 spectropolarimeter using a 0.1 cm path length cell. All spectra were recorded with a step size of 0.1 nm, a bandwidth of 1 nm, and an α-synuclein concentration of 0.1 mg/ml. The spectra were trimmed at the shortest wavelength which still provided a dynode voltage less than […]. The trimmed spectra were then subjected to a data processing routine beginning with noise reduction by Fourier transform followed by subtraction of a blank spectrum (compound or vehicle only without α-synuclein). These blank corrected spectra were then zeroed at 260 nm and the units converted from millidegrees to specific ellipticity. Percent β-sheet was determined from processed spectra by subtracting the ellipticity minimum value at approximately 218 nm from the maximum value observed at approximately 197 nm and referencing to a scale normalized to nearly fully folded and unfolded reference values, consistent with previous reports (Ramirez-Alvarado et al., J. Mol. […] Andersen et al., J. Am. Chem. […] These percent β-sheet values were then used to provide the respective relative % inhibition induced by the compounds.

Aβ 1-42 fibrils [2] = molecular target: T1, Aβ 1-42 fibrils; experiment: Circular dichroism spectroscopy of Aβ 1-42 fibrils
Experimental: Circular dichroism (CD) spectroscopy is a method that can be used to determine the effects of test compounds to disrupt the secondary structure conformation of amyloid fibrils. In one study, as described in this example, circular dichroism spectroscopy was used to determine the effects of different compounds of the invention on β-sheet conformation of Aβ 1-42 fibrils. For this study, Aβ 1-42 (Bachem Inc., Torrance, Calif.) was first dissolved in a 2 mM NaOH solution, maintaining the pH of these solutions above 10. […] Aβ 1-42 was then incubated at 37° C. in the absence or presence of different compounds at an Aβ:test compound wt/wt ratios of 1:0.1, 1:1 and 1:10. After 3 days of incubation, CD spectra were recorded on a Jasco 810 spectropolarimeter (Easton, Md.). All CD spectra were collected with 0.05 cm quartz cells. Wavelength traces were scanned from 190-260 nm at 0.5 nm increments with a bandwidth of 5 nm, at a scan speed of 10 nm/minute, a response time of 32 seconds, and a data pitch of 0.5 nm. The whole system was equilibrated and continuously flushed with nitrogen at 10 ml/minute. […] Ellipticity in degrees was converted to MRE ([Q]; molar residue ellipticity) using the formula [Q]=100•[…]; where Q is the ellipticity in degrees; […]

[3] = Aβ:test compound wt/wt ratio 1:0.001
[4] = Aβ:test compound wt/wt ratio 1:0.1
[5] = Aβ:test compound wt/wt ratio 1:1
[6] = NAC:test compound wt/wt ratio 1:0.001
[7] = NAC:test compound wt/wt ratio 1:0.01
[8] = NAC:test compound wt/wt ratio 1:0.1
[9] = NAC:test compound wt/wt ratio 1:1
[10] = all concentrations tested (ratios 1:1 to 1:0.001), 3 days

T1 sequence (P05067 672-713): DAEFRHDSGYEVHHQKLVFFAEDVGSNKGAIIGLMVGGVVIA

SMILES: Oc1ccc(Cc2ccc(O)c(O)c2)cc1O [Compound 3, 3,4,3′,4′-tetrahydroxydiphenylmethane]
% Inhibition Aβ (result ± S.D.), Congo red binding (Aβ 1-42 fibrils [1]; [3]): 1.7 ± 4.21% | % Inhibition Aβ (result ± S.D.), Congo red binding (Aβ 1-42 fibrils [1]; [4]): 35.7 ± 3.29% | % Inhibition Aβ (result ± S.D.), Congo red binding (Aβ 1-42 fibrils [1]; [5]): 91.6±5.19% | % Inhibition NAC (result ± S.D.), Congo red binding (NAC fibrils; [6]): 65.2 ± 5.40% | % Inhibition NAC (result ± S.D.), Congo red binding (NAC fibrils; [7]): 81.7 ± 2.82% | % Inhibition NAC (result ± S.D.), Congo red binding (NAC fibrils; [8]): 83.2±3.57% | % Inhibition NAC (result ± S.D.), Congo red binding (NAC fibrils; [9]): 94.4±2.48%

SMILES: O=C(Nc1ccc(O)c(O)c1)Nc1ccc(O)c(O)c1 [Compound 76, 1,3-bis(3,4-dihydroxyphenyl)urea]
inhibition of conversion of α-synuclein to a β-sheet-rich structure (in words) (Wild-type α-synuclein): completed inhibited conversion

% Inhibition NAC (result ± S.D.), Congo red binding (NAC fibrils; [8]): 75.9 ± 2.58% | % Inhibition NAC (result ± S.D.), Congo red binding (NAC fibrils; [9]): 75.4 ± 2.96%
SMILES: O=C(c1ccc(O)c(O)c1)C(O)c1ccc(O)c(O)c1 (stereo not shown) [Compound 1, 3,4,3′,4′-tetrahydroxybenzoin]

SMILES: O=C(Nc1ccc(O)c(O)c1)C(=O)Nc1ccc(O)c(O)c1 [Compound 63, oxalic acid bis(3,4-dihydroxyanilide)]
inhibition of conversion of α-synuclein to a β-sheet-rich structure (in words) (Wild-type α-synuclein): modest inhibitory effects

% Inhibition NAC (result ± S.D.), Congo red binding (NAC fibrils; [8]): 36.7 ± 5.59% | % Inhibition NAC (result ± S.D.), Congo red binding (NAC fibrils; [9]): 34.4 ± 10.19%
SMILES: O=C(N[C@@H]1CCCC[C@H]1NC(=O)c1ccc(O)c(O)c1)c1ccc(O)c(O)c1 (relative stereo) [Compound 26, N,N′-bis(3,4-dihydroxybenzoyl)-trans-1,2-diaminocyclohexane]

inhibition of conversion of α-synuclein to a β-sheet-rich structure (in words) (Wild-type α-synuclein): modest inhibitory effects
SMILES: O=C(c1ccc(O)c(O)c1)N1CCN(C(=O)c2ccc(O)c(O)c2)CC1 [Compound 23, 1,4-bis(3,4-dihydroxybenzoyl)piperazine]

SMILES: O=C(O)CN(CCN(CC(=O)O)CC(=O)O)CC(=O)O [EDTA, reference compound]
% Inhibition Aβ (result ± S.D.), Congo red binding (Aβ 1-42 fibrils [1]; [3]): 7.91 ± 3.61% | % Inhibition Aβ (result ± S.D.), Congo red binding (Aβ 1-42 fibrils [1]; Aβ:test compound wt/wt ratio 1:0.01): 0.0 ± 3.91% | % Inhibition Aβ (result ± S.D.), Congo red binding (Aβ 1-42 fibrils [1]; [4]): 3.6 ± 8.68% | % Inhibition Aβ (result ± S.D.), Congo red binding (Aβ 1-42 fibrils [1]; [5]): 1.1 ± 7.02% | inhibition of Aβ 1-42 fibril binding to Congo red (in words) (Aβ 1-42 fibrils [1]; [10]): no significant inhibition | % Inhibition NAC (result ± S.D.), Congo red binding (NAC fibrils; [6]): 0.0 ± 20.57% | % Inhibition NAC (result ± S.D.), Congo red binding (NAC fibrils; [7]): 0.0 ± 22.0% | % Inhibition NAC (result ± S.D.), Congo red binding (NAC fibrils; [8]): 0.0 ± 38.26% | % Inhibition NAC (result ± S.D.), Congo red binding (NAC fibrils; [9]): 0.2 ± 7.33% | inhibition of NAC fibril binding to Congo red (in words) (NAC fibrils; [10]): no significant inhibition

% Inhibition NAC (result ± S.D.), Congo red binding (NAC fibrils; [9]): 81.2 ± 2.87%
SMILES: O=C(CCC(=O)NCc1ccc(O)c(O)c1)NCc1ccc(O)c(O)c1 [Compound 67, succinic acid bis(3,4-dihydroxybenzylamide)]

SMILES: O=C(Nc1ccc(O)c(O)c1)c1ccc(O)c(O)c1 [Compound 51, 3,4-dihydroxybenzoic acid 3,4-dihydroxyanilide]
conversion of natively unfolded α-synuclein to a β-sheet-rich structure (in words) (Wild-type α-synuclein; 1 mg/ml α-synuclein, 1 mg/ml compound, 24 hours, 37°): prevents the conversion of natively unfolded α-synuclein to a β-sheet-rich structure | dose sufficient to completely eliminate the conversion of α-synuclein to a β-sheet-rich structure (Wild-type α-synuclein; 1.0 mg/ml α-synuclein, 24 hours incubation at 37° C.): 0.25 mg/mL | IC50 (Wild-type α-synuclein; 1.0 mg/ml α-synuclein, 24 hours incubation at 37° C., read-out: dose sufficient to inhibit the conversion of α-synuclein to a β-sheet-rich structure by approximately 50% (converted)): 574 µM | inhibition of conversion of α-synuclein to a β-sheet-rich structure (in words) (Wild-type α-synuclein): completed inhibited conversion | β-sheet-rich structure of α-synuclein (Wild-type α-synuclein; compound added 24 hours after the beginning (t=24 hr), up to 144 hours at 37° C.): ≤ 45% | β-sheet-rich structure of α-synuclein (Wild-type α-synuclein; compound added at the beginning (t=0 hr), sampled up to 144 hours): approximately 10% | disruption of β-sheet structure in Aβ 1-42 fibrils (CD minima at 218 nm) (Aβ 1-42 fibrils [2]; 3 days co-incubation, 25 μM Aβ 1-42 (FIG. 1, FIG. 2)): marked disruption of β-sheet structure | disruption of β-sheet structure of Aβ 1-42 fibrils (CD minima at 218 nm) (Aβ 1-42 fibrils [2]; Aβ:test compound wt/wt ratio of 1:10 (FIG. 3)): completely disrupt the β-sheet structure | dose-response of disruption of β-sheet structure of Aβ 1-42 fibrils (CD minima at 218 nm) (Aβ 1-42 fibrils [2]; Aβ:test compound wt/wt ratios of 1:0.1, 1:1 and 1:10 (FIG. 3)): dose-dependent decrease in the minima

Reference: patent publication US20070276034A1, “Compounds, compositions and methods for the treatment of synucleinopathies” (priority 2002, published 2007)
